Laboratory results: PubChem BioAssay (NCI)
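All cell lines were grown in 96-well plates and treated with compound for 48 hours. TGI denotes the concentration required for complete inhibition of growth.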

Assays:
Assay in all cases: DTP human tumour cell line panel, 48 h
[1] = system: 786-0 renal
[2] = system: A498 renal
[3] = system: A549 NSCLC
[4] = system: ACHN renal
[5] = system: BT-549 breast
[6] = system: CAKI-1 renal
[7] = system: CCRF-CEM leukemia
[8] = system: COLO 205 colon
[9] = system: EKVX NSCLC
[10] = system: HCT-116 colon
[11] = system: HCT-15 colon
[12] = system: HL-60(TB) leukemia
[13] = system: HOP-62 NSCLC
[14] = system: HOP-92 NSCLC
[15] = system: HS 578T breast
[16] = system: HT29 colon
[17] = system: IGROV1 ovarian
[18] = system: K-562 leukemia
[19] = system: KM12 colon
[20] = system: LOX IMVI melanoma
[21] = system: M14 melanoma
[22] = system: MALME-3M melanoma
[23] = system: MCF7 breast
[24] = system: MDA-MB-231 breast
[25] = system: MDA-MB-435
[26] = system: MDA-N
[27] = system: MOLT-4 leukemia
[28] = system: NCI-H226 lung
[29] = system: NCI-H23 lung
[30] = system: NCI-H460 lung
[31] = system: NCI/ADR-RES ovarian
[32] = system: OVCAR-3 ovarian
[33] = system: OVCAR-4 ovarian
[34] = system: OVCAR-5 ovarian
[35] = system: OVCAR-8 ovarian
[36] = system: PC-3 prostate
[37] = system: RXF 393 renal
[38] = system: SF-295 CNS
[39] = system: SF-539 CNS
[40] = system: SK-MEL-2 melanoma
[41] = system: SK-MEL-28 melanoma
[42] = system: SK-MEL-5 melanoma
[43] = system: SK-OV-3 ovarian
[44] = system: SN12C renal
[45] = system: SNB-19 CNS
[46] = system: SNB-75 CNS
[47] = system: SR leukemia
[48] = system: SW-620 colon
[49] = system: TK-10 renal
[50] = system: U251 CNS
[51] = system: UACC-257 melanoma
[52] = system: UACC-62 melanoma
[53] = system: UO-31 renal
[54] = system: DU-145 prostate
[55] = system: NCI-H522 lung
[56] = system: RPMI-8226 leukemia
[57] = system: SF-268 CNS

Compound: CC1CCC2C(C)(C)CC3(C)CCC1C23O (stereo unspecified)
- TGI [1]: 29 µM
- TGI [2]: 36.7 µM
- TGI [3]: 37 µM
- TGI [4]: 29.7 µM
- TGI [5]: 32 µM
- TGI [6]: 27.2 µM
- TGI [7]: 21.7 µM
- TGI [8]: 33.2 µM
- TGI [9]: 28.3 µM
- TGI [10]: 27.9 µM
- TGI [11]: 30.6 µM
- TGI [12]: 5.57 µM
- TGI [13]: 30.6 µM
- TGI [14]: 26.4 µM
- TGI [15]: 30.3 µM
- TGI [16]: 29.9 µM
- TGI [17]: 29.4 µM
- TGI [18]: 40.9 µM
- TGI [19]: 29.1 µM
- TGI [20]: 28.9 µM
- TGI [21]: 29.4 µM
- TGI [22]: 26.2 µM
- TGI [23]: 29.3 µM
- TGI [24]: 29.7 µM
- TGI [25]: 30.5 µM
- TGI [26]: 25.3 µM
- TGI [27]: 28 µM
- TGI [28]: 29.9 µM
- TGI [29]: 29.6 µM
- TGI [30]: 30.7 µM
- TGI [31]: 28 µM
- TGI [32]: 29.9 µM
- TGI [33]: 49.6 µM
- TGI [34]: 34.9 µM
- TGI [35]: 34.4 µM
- TGI [36]: 25.7 µM
- TGI [37]: 30.8 µM
- TGI [38]: 25.8 µM
- TGI [39]: 31.6 µM
- TGI [40]: 27.3 µM
- TGI [41]: 29.8 µM
- TGI [42]: 27.7 µM
- TGI [43]: 89.2 µM
- TGI [44]: 32.6 µM
- TGI [45]: > 100 µM
- TGI [46]: 48.4 µM
- TGI [47]: 29.1 µM
- TGI [48]: 30.2 µM
- TGI [49]: 31.6 µM
- TGI [50]: 29.5 µM
- TGI [51]: 29.7 µM
- TGI [52]: 28.2 µM
- TGI [53]: 30 µM

Compound: CC(C)=CCNc1ncnc2c1c(C#N)cn2C1OC(CO)C(O)C1O (stereo unspecified)
- TGI [1]: > 100 µM
- TGI [2]: > 72.6 µM
- TGI [3]: > 100 µM
- TGI [4]: > 100 µM
- TGI [5]: > 100 µM
- TGI [6]: > 100 µM
- TGI [7]: 81.5 µM
- TGI [8]: 6.76 µM
- TGI [54]: > 100 µM
- TGI [9]: > 100 µM
- TGI [10]: > 100 µM
- TGI [11]: > 100 µM
- TGI [12]: 67.9 µM
- TGI [13]: > 100 µM
- TGI [14]: > 100 µM
- TGI [15]: > 100 µM
- TGI [16]: > 100 µM
- TGI [17]: > 100 µM
- TGI [18]: > 100 µM
- TGI [19]: > 100 µM
- TGI [20]: > 100 µM
- TGI [21]: > 100 µM
- TGI [22]: > 100 µM
- TGI [24]: > 100 µM
- TGI [25]: > 100 µM
- TGI [26]: > 100 µM
- TGI [27]: > 100 µM
- TGI [28]: > 100 µM
- TGI [29]: > 100 µM
- TGI [30]: 33.6 µM
- TGI [55]: > 50.3 µM
- TGI [31]: > 100 µM
- TGI [32]: 77.1 µM
- TGI [33]: 23.3 µM
- TGI [34]: > 100 µM
- TGI [35]: > 100 µM
- TGI [36]: > 100 µM
- TGI [56]: > 72.9 µM
- TGI [37]: > 100 µM
- TGI [57]: > 100 µM
- TGI [38]: > 100 µM
- TGI [39]: > 100 µM
- TGI [40]: > 100 µM
- TGI [41]: > 100 µM
- TGI [42]: > 100 µM
- TGI [43]: > 100 µM
- TGI [44]: > 100 µM
- TGI [45]: > 100 µM
- TGI [46]: > 100 µM
- TGI [47]: > 100 µM
- TGI [48]: > 100 µM
- TGI [49]: 24.7 µM
- TGI [50]: > 100 µM
- TGI [51]: > 100 µM
- TGI [52]: > 100 µM
- TGI [53]: > 100 µM

Compound: O=c1cc(-c2ccccc2)nc(-n2[nH]c3c(c2=O)CCCC3)[nH]1
- TGI [1]: 46.3 µM
- TGI [2]: > 100 µM
- TGI [3]: > 100 µM
- TGI [4]: 80.1 µM
- TGI [5]: > 100 µM
- TGI [6]: > 100 µM
- TGI [7]: 35.8 µM
- TGI [8]: 40.8 µM
- TGI [54]: 3.97 µM
- TGI [9]: > 100 µM
- TGI [10]: 18.6 µM
- TGI [11]: > 100 µM
- TGI [12]: > 100 µM
- TGI [14]: > 100 µM
- TGI [15]: > 100 µM
- TGI [16]: 33.8 µM
- TGI [17]: > 100 µM
- TGI [18]: > 100 µM
- TGI [19]: > 100 µM
- TGI [21]: 26.8 µM
- TGI [22]: > 100 µM
- TGI [23]: > 100 µM
- TGI [24]: > 100 µM
- TGI [25]: 89.9 µM
- TGI [26]: > 100 µM
- TGI [27]: > 100 µM
- TGI [28]: > 100 µM
- TGI [29]: > 100 µM
- TGI [30]: > 100 µM
- TGI [55]: 69.6 µM
- TGI [33]: 61.9 µM
- TGI [34]: > 100 µM
- TGI [36]: > 100 µM
- TGI [56]: 65.7 µM
- TGI [37]: 25.5 µM
- TGI [57]: > 100 µM
- TGI [38]: > 100 µM
- TGI [39]: 44.6 µM
- TGI [40]: 29.4 µM
- TGI [41]: 28.9 µM
- TGI [42]: > 100 µM
- TGI [43]: > 100 µM
- TGI [44]: > 100 µM
- TGI [45]: > 100 µM
- TGI [46]: 14.2 µM
- TGI [47]: > 100 µM
- TGI [48]: > 100 µM
- TGI [49]: > 100 µM
- TGI [50]: > 100 µM
- TGI [51]: > 100 µM
- TGI [52]: 15.6 µM
- TGI [53]: > 100 µM
